In US10206906B2, “Synergistic combination of a phenolic-rich maple syrup extract and an antibiotic” (priority 2015, dated 2019):
Values after ≈ are worked out from the molar mass of the structure shown.

How the values were obtained:
[1] = system: E. coli CFT073; test: Determination of minimum inhibitory concentration (MIC); assay type: cell-based; settings: Escherichia coli, CFT073, 18 h
Experimental: (§1) A range of concentration of antibiotics, ciprofloxacin (0.0003-0.25 μg mL^−1) and carbenicillin (0.5-512 μg mL^−1), are chosen due to their known potency against all four bacterial strains. Dilutions are prepared in flat bottom, 96 well microtitre plates (Falcon™, Corning™, Fisher Scientific, ON, Canada). Each well of a microtitre plate is then inoculated with the desired bacterial strain (grown in MHB-II and diluted to […]) and the plate is incubated at 37° C. for 18 h under static conditions. Bacterial growth is assessed by (i) monitoring the optical density of the cell suspension in each well at 600 nm (OD600 nm), and (ii) the resazurin microtitre plate assay. In the resazurin microtitre plate assay, each well of a microtitre plate is supplemented with 20 μM resazurin, incubated in the dark for 20 min at room temperature, followed by fluorescence measurements at ex/em 570/590 nm using a TECAN Infinite M200 Pro microplate reader (Tecan Group Ltd., Switzerland). The lowest concentration of a compound able to prevent increase in OD600 nm and resazurin fluorescence intensity is recorded as the MIC for that compound.

[2] = system: P. aeruginosa PA14; test: as above; assay type: cell-based; settings: Pseudomonas aeruginosa, PA14, 18 h
Experimental: as §1

[3] = system: P. aeruginosa PAO1; test: as above; assay type: cell-based; settings: Pseudomonas aeruginosa, PAO1, 18 h
Experimental: as §1

[4] = system: P. mirabilis HI4320; test: as above; assay type: cell-based; settings: Proteus mirabilis, HI4320, 18 h
Experimental: as §1

[5] = system: E. coli CFT073; test: Checkerboard microdilution assay (growth inhibition synergy); assay type: cell-based, Escherichia coli
Experimental: (§2) The checkerboard microdilution assay is used for evaluation of in vitro antimicrobial synergy between two compounds (i.e., antibiotic/PRMSE, antibiotic/pure phenolic compound, and pure phenolic compounds with each other). Two-fold serial dilutions are prepared in MHB-II for each of the two compounds under study. The serial dilutions are then loaded into 96 well plates to achieve combinations having different concentrations of each of the two compounds. Each well is subsequently inoculated with 10^6 CFU mL^−1 of the desired bacterial strain and incubated at 37° C. for 18 h under static conditions. The Fractional Inhibitory Concentration Index (FICI) for each combination is calculated by using the following formula: FICcomponent 1=MICcomponent 1, in combination/MICcomponent 1,alone FICI=FICcomponent 1+FICcomponent 2
(§3) The FICIs are interpreted as follows: FICI of […] (synergy); 0.5<FICI ≤1 (no interaction/indifference); FICI of >4 (antagonism).

[6] = system: P. mirabilis HI4320; test: as above; assay type: cell-based, Proteus mirabilis
Experimental: as §2, §3

[7] = system: P. aeruginosa PA14; test: as above; assay type: cell-based, Pseudomonas aeruginosa
Experimental: as §2, §3

[8] = system: P. aeruginosa PAO1; test: as above; assay type: cell-based, Pseudomonas aeruginosa
Experimental: as §2, §3

[9] = system: E. coli CFT073, P. mirabilis HI4320, P. aeruginosa PAO1 and PA14; test: Checkerboard microdilution assay, summary over the four strains; assay type: cell-based; settings: labelled constituent + gallic acid; range over the four strains
Experimental: as §2, §3

[10] = system: outer membrane of E. coli CFT073; test: Outer membrane permeabilization, NPN uptake assay; assay type: cell-based, Escherichia coli; settings: positive control gentamicin, above and below MICs
Experimental: (§4) The cells are harvested, washed with 5 mM HEPES buffer (pH 7.2), and resuspended in the same volume (10 mL) of 5 mM HEPES buffer (pH 7.2) containing 1 mM N-ethylmaleimide (NEM, Sigma-Aldrich Canada). Aliquots (1 mL) are mixed with NPN to a final concentration of 10 μM (in cell suspension) and fluorescence is measured using the microplate reader (ex/em 350/420 nm).

[11] = system: outer membrane of P. mirabilis HI4320; test: Outer membrane permeabilization, NPN uptake assay; assay type: cell-based, Proteus mirabilis; settings: positive control gentamicin, above and below MICs
Experimental: as §4

[12] = system: outer membrane of P. aeruginosa PA14; test: Outer membrane permeabilization, NPN uptake assay; assay type: cell-based, Pseudomonas aeruginosa; settings: positive control gentamicin, above and below MICs
Experimental: as §4

[13] = system: outer membrane of P. aeruginosa PAO1; test: Outer membrane permeabilization, NPN uptake assay; assay type: cell-based, Pseudomonas aeruginosa; settings: positive control gentamicin, above and below MICs
Experimental: as §4

[14] = ciprofloxacin in combination with the labelled phenolic constituent
[15] = labelled constituent + catechaldehyde, * = synergistic
[16] = labelled constituent + catechol, * = synergistic
[17] = labelled constituent + gallic acid, * = synergistic
[18] = labelled constituent combined with catechaldehyde
[19] = labelled constituent combined with catechol
[20] = labelled constituent combined with gallic acid
[21] = labelled phenolic constituent + ciprofloxacin, * = synergistic interaction
[22] = labelled phenolic constituent in combination with ciprofloxacin

COc1cc(C=O)cc(OC)c1O [syringaldehyde]
MIC [1]: 5000 µg/mL (≈ 27.4 mM)
MIC [2]: 5000 µg/mL (≈ 27.4 mM)
MIC [3]: 5000 µg/mL (≈ 27.4 mM)
MIC [4]: 5000 µg/mL (≈ 27.4 mM)
FIC of ciprofloxacin [5, 14]: 0.5
FICI, catechaldehyde [5, 15]: 0.31*
FICI, catechol [5, 16]: 0.31*
FICI, gallic acid [5, 17]: 0.75
FIC, catechaldehyde [5, 18]: 0.25
FIC, catechol [5, 19]: 0.25
FIC, gallic acid [5, 20]: 0.5
FICI [5, 21]: 0.75
FIC of compound [5, 22]: 0.25
FIC of ciprofloxacin [6, 14]: 0.5
FICI, catechaldehyde [6, 15]: 0.75
FICI, catechol [6, 16]: 0.75
FICI, gallic acid [6, 17]: 1
FIC, catechaldehyde [6, 18]: 0.25
FIC, catechol [6, 19]: 0.25
FIC, gallic acid [6, 20]: 0.5
FICI [6, 21]: 1
FIC of compound [6, 22]: 0.5
FIC of ciprofloxacin [7, 14]: 0.5
FICI, catechaldehyde [7, 15]: 1
FICI, catechol [7, 16]: 1
FICI, gallic acid [7, 17]: 0.63
FIC, catechaldehyde [7, 18]: 0.5
FIC, catechol [7, 19]: 0.5
FIC, gallic acid [7, 20]: 0.13
FICI [7, 21]: 0.75
FIC of compound [7, 22]: 0.25
FIC of ciprofloxacin [8, 14]: 1
FICI, catechaldehyde [8, 15]: 0.5*
FICI, catechol [8, 16]: 0.5*
FICI, gallic acid [8, 17]: 1
FIC, catechaldehyde [8, 18]: 0.25
FIC, catechol [8, 19]: 0.25
FIC, gallic acid [8, 20]: 0.5
FICI [8, 21]: 2
FIC of compound [8, 22]: 1
FICIs of pairs with gallic acid [9]: 0.63-1.0

gentamicin [reference compound]
Minimum permeabilization concentration (NPN assay) [10]: 0.006 µg/mL
Minimum permeabilization concentration [11]: 0.013 µg/mL
Minimum permeabilization concentration [12]: 1 µg/mL
Minimum permeabilization concentration [13]: 1 µg/mL
